Source: ChEMBL document CHEMBL1152065, “Synthesis and anti-HIV activity of 9-[(2R-5R)-2,5-dihydro-5-(phosphonomethoxy)-2-furanyl]-2,6-diaminopurine” (Bioorg Med Chem Lett, 1992)
Values joined by “and” are separate entries in the source; they are usually repeats but may differ in a detail not shown here. Identical values can stand only once.

Key:
[1] = test system: MT4; experiment: Compound was evaluated for its ability to Inhibit HIV replication in MT-4 cells; type: functional, cell-based, Homo sapiens
[2] = Concentration of compound affecting viability of the uninfected cells by 50% when assayed in parallel with antiviral assay in MT-4 cells; type: cell-based, MT4; conditions: human, uninfected MT-4 cells; read-out: TC50 (the source's name)
[3] = test system: MT4; experiment: The compound was evaluated for its ability to Inhibit HIV replication in MT-4 cells; type: functional, cell-based; conditions: Homo sapiens

Nc1ncnc2c1ncn2[C@H]1C=C[C@@H](OCP(=O)(O)O)O1
IC50 ([1]; Homo sapiens, MT4): 4.3 µM
CC50 [2]: > 100 µM

Nc1nc(N)c2ncn([C@H]3C=C[C@@H](OCP(=O)(O)O)O3)c2n1
IC50 ([1]; Homo sapiens, MT4): 82.5 µM
CC50 [2]: > 100 µM

Nc1nc(N)c2ncn(CCOCP(=O)(O)O)c2n1 [PMEDAP]
IC50 [3]: 1 µM

Nc1ncnc2c1ncn2CCOCP(=O)(O)O [ADEFOVIR]
IC50 ([1]; mt4): 6.5 µM and 2 µM
CC50 [2]: 40 µM
